# Results taken from patent US10131652B2, “Pyrimidinyloxy benzene derivatives as herbicides” (E. I. DU PONT DE NEMOURS AND COMPANY, priority 2014, dated 2018).
# Legend:
# Assay in all cases: Test A pre-/postemergence plant response
# Format in all cases: in vivo
# Details in all cases: 0 to 100 scale, 0 is no effect, 100 is complete control
# [1] = tested on: barnyardgrass (Echinochloa crus-galli)
# Source text: (§1) Seeds of plant species selected from downy bromegrass (Bromus tectorum), cocklebur (common cocklebur, Xanthium strumarium), wild oat (Avena fatua), barnyardgrass (Echinochloa crus-galli), large (Lg) crabgrass (Digitaria sanguinalis), giant foxtail (Setaria faberii), morningglory (Ipomoea spp.), velvetleaf (Abutilon theophrasti), and sorghum (Sorghum vulgare) were planted into a sandy loam soil and treated preemergence by soil drench using test a chemical formulated in a non-phytotoxic solvent mixture which included a surfactant. At the same time these species were also treated postemergence sprayed to runoff using a test chemical formulated in the same manner. Plants ranged in height from 2 to 18 cm and were in the one- to two-leaf stage for the postemergence treatment. Treated plants and untreated controls were maintained in a greenhouse for approximately 11 days, after which time all treated plants were compared to untreated controls and visually evaluated for injury. Plant response ratings, summarized in Table A, are based on a 0 to 100 scale where 0 is no effect and 100 is complete control. A dash (-) response means no test result.
# [2] = tested on: cocklebur (common cocklebur, Xanthium strumarium)
# Source text: as §1
# [3] = tested on: downy bromegrass (Bromus tectorum)
# Source text: as §1
# [4] = tested on: giant foxtail (Setaria faberii)
# Source text: as §1
# [5] = tested on: large (Lg) crabgrass (Digitaria sanguinalis)
# Source text: as §1
# [6] = tested on: morningglory (Ipomoea spp.)
# Source text: as §1
# [7] = tested on: sorghum (Sorghum vulgare)
# Source text: as §1
# [8] = tested on: velvetleaf (Abutilon theophrasti)
# Source text: as §1
# wild oat (Avena fatua) = tested on: wild oat (Avena fatua)
# Source text: as §1
# [9] = 1000 g ai/ha, Post Sprayed to Runoff
compound,measurement,setting,value
Cc1ccc(Oc2ncc(Cl)cn2)c(-c2cccc(C(F)(F)F)c2)c1 [Compound 39],"Plant response rating, Barnyardgrass",[1]; [9],50
same,"Plant response rating, Barnyardgrass","[1]; 2000 g ai/ha, Pre Soil Drench",90
same,"Plant response rating, Cocklebur",[2]; [9],40
same,"Plant response rating, Cocklebur","[2]; 2000 g ai/ha, Pre Soil Drench",0
same,"Plant response rating, Bromegrass, Downy",[3]; [9],20
same,"Plant response rating, Bromegrass, Downy","[3]; 2000 g ai/ha, Pre Soil Drench",70
same,"Plant response rating, Foxtail, Giant",[4]; [9],30
same,"Plant response rating, Foxtail, Giant","[4]; 2000 g ai/ha, Pre Soil Drench",100
same,"Plant response rating, Crabgrass, Large",[5]; [9],50
same,"Plant response rating, Crabgrass, Large","[5]; 2000 g ai/ha, Pre Soil Drench",90
same,"Plant response rating, Morningglory",[6]; [9],30
same,"Plant response rating, Morningglory","[6]; 2000 g ai/ha, Pre Soil Drench",0
same,"Plant response rating, Sorghum",[7]; [9],30
same,"Plant response rating, Sorghum","[7]; 2000 g ai/ha, Pre Soil Drench",50
same,"Plant response rating, Velvetleaf",[8]; [9],60
same,"Plant response rating, Velvetleaf","[8]; 2000 g ai/ha, Pre Soil Drench",70
same,"Plant response rating, Oat, Wild",wild oat (Avena fatua); [9],20
same,"Plant response rating, Oat, Wild","wild oat (Avena fatua); 2000 g ai/ha, Pre Soil Drench",90
